Measurements from patent publication US20090311217A1, “3-SUBSTITUTED-1H-INDOLE COMPOUNDS, THEIR USE AS MTOR KINASE AND PI3 KINASE INHIBITORS, AND THEIR SYNTHESES” (priority 2008, published 2009).
Like-named read-outs stand apart in the source and are kept apart here.

Assays:
Format in all cases: biochemical
human TOR = target: T1, human TOR (Homo sapiens, UniProt P42345); test: mTOR enzyme assay (DELFIA, His6-S6K substrate); conditions: read-out: mTOR Kinase Avg. IC50
T1 construct: FLAG

PI3K-gamma = PI3K-gamma (Homo sapiens, UniProt P48736); test: PI3K-gamma fluorescence polarization assay
Chain of PI3K-gamma (P48736 whole entry, species assumed, the tested form may be a part): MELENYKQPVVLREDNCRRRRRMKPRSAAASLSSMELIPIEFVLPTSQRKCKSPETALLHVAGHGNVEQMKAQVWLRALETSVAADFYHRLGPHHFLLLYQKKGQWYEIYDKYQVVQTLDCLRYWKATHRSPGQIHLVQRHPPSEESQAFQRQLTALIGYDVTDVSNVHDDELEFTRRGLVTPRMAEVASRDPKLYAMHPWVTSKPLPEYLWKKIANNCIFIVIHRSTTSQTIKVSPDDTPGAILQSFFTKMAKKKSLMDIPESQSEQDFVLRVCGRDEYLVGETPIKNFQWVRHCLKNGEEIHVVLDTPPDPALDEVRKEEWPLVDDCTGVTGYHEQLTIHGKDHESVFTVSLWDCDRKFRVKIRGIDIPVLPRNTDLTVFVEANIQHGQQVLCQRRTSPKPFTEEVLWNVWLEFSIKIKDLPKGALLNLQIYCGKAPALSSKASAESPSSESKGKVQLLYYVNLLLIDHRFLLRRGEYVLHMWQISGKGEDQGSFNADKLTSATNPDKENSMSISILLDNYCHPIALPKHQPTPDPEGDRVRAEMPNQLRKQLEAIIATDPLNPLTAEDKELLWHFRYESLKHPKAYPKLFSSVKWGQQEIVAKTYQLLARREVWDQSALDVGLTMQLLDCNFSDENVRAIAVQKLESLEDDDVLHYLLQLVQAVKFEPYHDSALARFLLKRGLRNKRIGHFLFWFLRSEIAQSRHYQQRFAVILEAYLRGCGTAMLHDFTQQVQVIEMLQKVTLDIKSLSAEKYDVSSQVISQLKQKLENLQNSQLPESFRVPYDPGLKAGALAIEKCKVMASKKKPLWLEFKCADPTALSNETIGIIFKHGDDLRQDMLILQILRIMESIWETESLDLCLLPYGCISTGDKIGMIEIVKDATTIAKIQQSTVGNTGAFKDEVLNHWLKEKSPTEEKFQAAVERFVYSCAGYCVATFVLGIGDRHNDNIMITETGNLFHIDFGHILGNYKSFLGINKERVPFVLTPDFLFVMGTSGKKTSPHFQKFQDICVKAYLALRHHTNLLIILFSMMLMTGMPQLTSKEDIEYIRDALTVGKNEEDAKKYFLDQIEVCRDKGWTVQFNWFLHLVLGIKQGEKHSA
How it was run: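 FP displacement read-out: 100 nM GST-GRP1 PH domain plus 5 nM BODIPY-TMR-IP4 added after EDTA stop. Preceding kinase step: 5 ng enzyme, diC8-PI(4,5)P2 2.5 μM, ATP 25 μM, MgCl2 2.5 mM, HEPES 5 mM pH 7, one hour, 25° C.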

PI3K-alpha = PI3K-alpha (Homo sapiens, UniProt P42336); test: PI3K-alpha fluorescence polarization assay; conditions: read-out: PI3Kα Avg. IC50
Chain of PI3K-alpha (P42336 whole entry, species assumed): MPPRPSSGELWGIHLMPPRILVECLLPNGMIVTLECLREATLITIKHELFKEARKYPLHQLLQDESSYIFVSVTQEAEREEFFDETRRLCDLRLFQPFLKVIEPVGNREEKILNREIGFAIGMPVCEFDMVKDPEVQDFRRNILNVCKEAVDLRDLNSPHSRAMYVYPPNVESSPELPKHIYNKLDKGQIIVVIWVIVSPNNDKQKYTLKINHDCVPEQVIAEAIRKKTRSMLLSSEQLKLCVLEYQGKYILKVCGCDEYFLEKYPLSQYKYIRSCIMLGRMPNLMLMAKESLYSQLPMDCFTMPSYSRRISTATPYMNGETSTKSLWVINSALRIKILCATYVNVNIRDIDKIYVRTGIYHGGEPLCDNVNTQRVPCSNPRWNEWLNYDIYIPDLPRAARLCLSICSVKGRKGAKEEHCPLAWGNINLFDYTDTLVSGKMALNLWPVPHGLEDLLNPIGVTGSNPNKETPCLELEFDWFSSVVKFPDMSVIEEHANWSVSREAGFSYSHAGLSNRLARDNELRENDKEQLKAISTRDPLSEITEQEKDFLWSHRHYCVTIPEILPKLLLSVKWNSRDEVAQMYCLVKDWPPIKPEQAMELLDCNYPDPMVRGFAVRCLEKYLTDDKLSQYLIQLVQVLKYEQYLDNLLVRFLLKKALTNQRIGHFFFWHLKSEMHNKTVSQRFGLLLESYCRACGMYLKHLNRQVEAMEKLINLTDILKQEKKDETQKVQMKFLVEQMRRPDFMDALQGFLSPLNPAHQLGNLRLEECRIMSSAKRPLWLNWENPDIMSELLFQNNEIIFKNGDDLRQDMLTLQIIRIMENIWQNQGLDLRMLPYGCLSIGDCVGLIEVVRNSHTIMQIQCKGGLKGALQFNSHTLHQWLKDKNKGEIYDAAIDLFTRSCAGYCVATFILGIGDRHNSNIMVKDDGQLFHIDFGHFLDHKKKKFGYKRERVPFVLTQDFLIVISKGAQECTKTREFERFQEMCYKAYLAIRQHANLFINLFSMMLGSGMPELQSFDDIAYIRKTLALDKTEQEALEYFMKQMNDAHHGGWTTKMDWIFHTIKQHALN
Chain of PI3K-alpha (P27986 whole entry partner, species assumed): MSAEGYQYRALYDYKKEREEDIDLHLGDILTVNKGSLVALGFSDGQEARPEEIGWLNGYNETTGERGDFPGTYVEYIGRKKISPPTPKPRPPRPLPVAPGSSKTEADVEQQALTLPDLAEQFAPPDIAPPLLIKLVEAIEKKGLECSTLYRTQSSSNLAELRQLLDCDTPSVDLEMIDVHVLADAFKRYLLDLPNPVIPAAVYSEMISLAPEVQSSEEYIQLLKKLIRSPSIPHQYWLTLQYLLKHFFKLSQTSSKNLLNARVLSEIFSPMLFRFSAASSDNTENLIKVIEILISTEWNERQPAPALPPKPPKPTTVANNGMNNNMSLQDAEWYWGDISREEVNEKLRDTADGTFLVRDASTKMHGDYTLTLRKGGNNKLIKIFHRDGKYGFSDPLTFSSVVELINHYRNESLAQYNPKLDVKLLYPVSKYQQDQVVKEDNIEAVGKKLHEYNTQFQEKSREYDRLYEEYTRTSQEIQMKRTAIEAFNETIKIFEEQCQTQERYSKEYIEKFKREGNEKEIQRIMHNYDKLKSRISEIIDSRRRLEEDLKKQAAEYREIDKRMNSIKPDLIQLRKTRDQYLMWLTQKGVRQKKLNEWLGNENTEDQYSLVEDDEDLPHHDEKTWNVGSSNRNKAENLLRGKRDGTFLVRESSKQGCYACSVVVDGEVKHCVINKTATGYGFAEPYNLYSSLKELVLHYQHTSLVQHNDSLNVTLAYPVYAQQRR

Structure (SMILES) | IC50 (human TOR) | IC50 (PI3K-gamma; PI3Kγ Avg. IC50) | IC50 (PI3K-alpha) | IC50 (PI3K-gamma; read-out: PI3Kγ Avg. IC50)
COc1ccc2c(c1)c(/C=C1\Oc3ccc(NC(=O)Nc4cccnc4)cc3C1=O)c(C)n2CCN1CCN(C)CC1 [Compound 617, 1-[(2Z)-2-({5-methoxy-2-methyl-1-[2-(4-methylpiperazin-1-yl)ethyl]-1H-indol-3-yl}methylidene)-3-oxo-2,3-dihydro-1-benzofuran-5-yl]-3-pyridin-3-ylurea] | 58 nM | 246 nM | 1.9 nM | –
CNC(=O)Nc1ccc2c(c1)C(=O)/C(=C/c1c(-c3nc(C(C)C)no3)n(CCN3CCN(C)CC3)c3ccc(OC)cc13)O2 [Compound 621, 1-[(2Z)-2-({5-methoxy-2-[3-(1-methylethyl)-1,2,4-oxadiazol-5-yl]-1-[2-(4-methylpiperazin-1-yl)ethyl]-1H-indol-3-yl}methylidene)-3-oxo-2,3-dihydro-1-benzofuran-5-yl]-3-methylurea] | 225 nM | – | 3.5 nM | 355 nM
CNC(=O)Nc1ccc2c(c1)C(=O)/C(=C/c1c(C(=O)NC(C)(C)CO)[nH]c3ccc(OC)cc13)O2 [Compound 622, N-(2-hydroxy-1,1-dimethylethyl)-5-methoxy-3-[(Z)-{5-[(methylcarbamoyl)amino]-3-oxo-1-benzofuran-2(3H)-ylidene}methyl]-1H-indole-2-carboxamide] | 96 nM | 39 nM | 8 nM | –
CNC(=O)Nc1ccc2c(c1)C(=O)/C(=C/c1c(-c3c(C)noc3C)n(CCN3CCN(C)CC3)c3ccc(OC)cc13)O2 [Compound 623, 1-[(2Z)-2-({2-(3,5-dimethylisoxazol-4-yl)-5-methoxy-1-[2-(4-methylpiperazin-1-yl)ethyl]-1H-indol-3-yl}methylidene)-3-oxo-2,3-dihydro-1-benzofuran-5-yl]-3-methylurea] | 60 nM | 296 nM | 8.5 nM | –
CNC(=O)Nc1ccc2c(c1)C(=O)/C(=C/c1c(-c3ccc(CN(C)C)cc3)[nH]c3ccc(OC)cc13)O2 [Compound 624, 1-{(2Z)-2-[(2-{4-[(dimethylamino)methyl]phenyl}-5-methoxy-1H-indol-3-yl)methylidene]-3-oxo-2,3-dihydro-1-benzofuran-5-yl}-3-methylurea] | 57 nM | 23 nM | 2.1 nM | –
CNC(=O)Nc1ccc2c(c1)C(=O)/C(=C/c1c(-c3c(C)n[nH]c3C)[nH]c3ccc(OC)cc13)O2 [Compound 625, 1-[(2Z)-2-{[2-(3,5-dimethyl-1H-pyrazol-4-yl)-5-methoxy-1H-indol-3-yl]methylidene}-3-oxo-2,3-dihydro-1-benzofuran-5-yl]-3-methylurea] | 1 nM | 4.7 nM | 0.2 nM | –
CNC(=O)Nc1ccc2c(c1)C(=O)/C(=C/c1c(-c3nc(C4CC4)no3)n(CCN3CCN(C)CC3)c3ccc(OC)cc13)O2 [Compound 626, 1-[(2Z)-2-({2-(3-cyclopropyl-1,2,4-oxadiazol-5-yl)-5-methoxy-1-[2-(4-methylpiperazin-1-yl)ethyl]-1H-indol-3-yl}methylidene)-3-oxo-2,3-dihydro-1-benzofuran-5-yl]-3-methylurea] | 66 nM | 470 nM | 3 nM | –
CNC(=O)Nc1ccc2c(c1)C(=O)/C(=C/c1c(C#N)n(CCN3CCN(C)CC3)c3ccc(OC)cc13)O2 [Compound 628, 1-[(2Z)-2-({2-cyano-5-methoxy-1-[2-(4-methylpiperazin-1-yl)ethyl]-1H-indol-3-yl}methylidene)-3-oxo-2,3-dihydro-1-benzofuran-5-yl]-3-methylurea] | 150 nM | 2730 nM | 11 nM | –
CNC(=O)Nc1ccc2c(c1)C(=O)/C(=C/c1c(-c3cccc(CN(C)C)c3)[nH]c3ccc(OC)cc13)O2 [Compound 629, 1-{(2Z)-2-[(2-{3-[(dimethylamino)methyl]phenyl}-5-methoxy-1H-indol-3-yl)methylidene]-3-oxo-2,3-dihydro-1-benzofuran-5-yl}-3-methylurea] | 50 nM | 25.5 nM | 1.3 nM | –
CNC(=O)Nc1ccc2c(c1)C(=O)/C(=C/c1c(-c3ccc(CN(C)C)cc3)n(CCN3CCN(C)CC3)c3ccc(OC)cc13)O2 [Compound 630, 1-{(2Z)-2-[(2-{4-[(dimethylamino)methyl]phenyl}-5-methoxy-1-[2-(4-methylpiperazin-1-yl)ethyl]-1H-indol-3-yl)methylidene]-3-oxo-2,3-dihydro-1-benzofuran-5-yl}-3-methylurea] | 200 nM | 157 nM | 1.15 nM | –
CNC(=O)Nc1ccc2c(c1)C(=O)/C(=C/c1c(C(C)(C)C)[nH]c3ccc(OC)cc13)O2 [Compound 631, 1-{(2Z)-2-[(2-tert-butyl-5-methoxy-1H-indol-3-yl)methylidene]-3-oxo-2,3-dihydro-1-benzofuran-5-yl}-3-methylurea] | 2 nM | 54.5 nM | 5 nM | –
COc1ccc2c(c1)c(/C=C1\Oc3ccc(NC(=O)Nc4cccnc4)cc3C1=O)c(C)n2CCN1CCN(C)CC1 [Compound 632, 1-[(2Z)-2-({5-methoxy-2-methyl-1-[2-(4-methylpiperazin-1-yl)ethyl]-1H-indol-3-yl}methylidene)-3-oxo-2,3-dihydro-1-benzofuran-5-yl]-3-pyridin-3-ylurea] | 49 nM | – | 1.9 nM | 246 nM
COc1ccc2c(c1)c(/C=C1\Oc3ccc(NC(=O)Nc4ccc(N(C)C)cc4)cc3C1=O)c(C)n2CCN1CCN(C)CC1 [Compound 633, 1-[4-(dimethylamino)phenyl]-3-[(2Z)-2-({5-methoxy-2-methyl-1-[2-(4-methylpiperazin-1-yl)ethyl]-1H-indol-3-yl}methylidene)-3-oxo-2,3-dihydro-1-benzofuran-5-yl]urea] | 225 nM | 1910 nM | 3.87 nM | –
Cn1cc(C=C2Oc3cc(O)cc(O)c3C2=O)c2c(OCc3ccccc3)cccc21 [Example 256, 2-{[4-(benzyloxy)-1-methyl-1H-indol-3-yl]methylene}-4,6-dihydroxy-1-benzofuran-3(2H)-one] | 280 nM | – | > 10000 nM | –
Cn1c(-c2ccc(OCc3ccccc3)cc2)c(C=C2Oc3cc(O)cc(O)c3C2=O)c2ccccc21 [Example 260, 2-({2-[4-(benzyloxy)phenyl]-1-methyl-1H-indol-3-yl}methylene)-4,6-dihydroxy-1-benzofuran-3(2H)-one] | 4500 nM | – | 1670 nM | –
CC(C)Oc1ccc(-c2c(C=C3Oc4cc(O)cc(O)c4C3=O)c3ccccc3n2C)cc1 [Example 261, 4,6-dihydroxy-2-{[2-(4-isopropoxyphenyl)-1-methyl-1H-indol-3-yl]methylene}-1-benzofuran-3(2H)-one] | 680 nM | – | 1980 nM | –
N#Cc1cccc2c1c(C=C1Oc3cc(O)cc(O)c3C1=O)cn2CCN1CCOCC1 [Example 262, 3-[(4,6-dihydroxy-3-oxo-1-benzofuran-2(3H)-ylidene)methyl]-1-(2-morpholin-4-ylethyl)-1H-indole-4-carbonitrile] | 420 nM | – | > 10000 nM | –
N#Cc1cccc2c1c(C=C1Oc3cc(O)cc(O)c3C1=O)cn2Cc1ccncc1 [Example 263, 3-[(4,6-dihydroxy-3-oxo-1-benzofuran-2(3H)-ylidene)methyl]-1-(pyridin-4-ylmethyl)-1H-indole-4-carbonitrile] | 260 nM | – | 1680 nM | –
N#CCCCn1cc(C=C2Oc3cc(O)cc(O)c3C2=O)c2c(C#N)cccc21 [Example 264, 1-(3-cyanopropyl)-3-[(4,6-dihydroxy-3-oxo-1-benzofuran-2(3H)-ylidene)methyl]-1H-indole-4-carbonitrile] | 1700 nM | – | 3930 nM | –
CN(C)CCn1cc(C=C2Oc3cc(O)cc(O)c3C2=O)c2c(C#N)cccc21 [Example 265, 3-[(4,6-dihydroxy-3-oxo-1-benzofuran-2(3H)-ylidene)methyl]-1-[2-(dimethylamino)ethyl]-1H-indole-4-carbonitrile] | 1300 nM | – | > 10000 nM | –
COCCn1cc(C=C2Oc3cc(O)cc(O)c3C2=O)c2c(C#N)cccc21 [Example 266, 3-[(4,6-dihydroxy-3-oxo-1-benzofuran-2(3H)-ylidene)methyl]-1-(2-methoxyethyl)-1H-indole-4-carbonitrile] | 810 nM | – | 290 nM | –
COC(=O)c1cccc2c1c(C=C1Oc3cc(O)cc(O)c3C1=O)cn2C [Example 267, methyl 3-[(4,6-dihydroxy-3-oxo-1-benzofuran-2(3H)-ylidene)methyl]-1-methyl-1H-indole-4-carboxylate] | 86 nM | – | 2060 nM | –
O=C1/C(=C/c2c(-c3ccc4ccccc4c3)[nH]c3ccccc23)Sc2ccc(Cl)cc21 [Example 285, (2Z)-5-chloro-2-{[2-(2-naphthyl)-1H-indol-3-yl]methylene}-1-benzothiophen-3(2H)-one] | > 20000 nM | – | > 10000 nM | –
COc1ccc(-c2cccc3c2c(/C=C2\Oc4cc(O)cc(O)c4C2=O)cn3C)cn1 [Example 369, (2Z)-4,6-Dihydroxy-2-{[4-(6-methoxypyridin-3-yl)-1-methyl-1H-indol-3-yl]methylene}-1-benzofuran-3(2H)-one] | 84.5 nM | – | 1050 nM | –
CNC(=O)Nc1ccc2c(c1)O/C(=C\c1cn(CCCN(C)C)c3ccc(OC)cc13)C2=O [Example 406, 1-(2Z)-[2-({1-[3-(Dimethylamino)propyl]-5-methoxy-1H-indol-3-yl}methylene)-3-oxo-2,3-dihydro-1-benzofuran-6-yl]-3-methyl urea] | > 20000 nM | > 10000 nM | – | –
COc1ccc2c(c1)c(/C=C1\Oc3c(ccc(O)c3C)C1=O)c(C)n2CCCN(C)C [Example 450, (2Z)-2-({1-[3-(Dimethylamino)propyl]-5-methoxy-2-methyl-1H-indol-3-yl}methylene)-6-hydroxy-7-methyl-1-benzofuran-3(2H)-one] | > 20000 nM | – | 662 nM | –
